These results are taken from EP2608671B1, “COMPOUNDS FOR TREATMENT OF CANCER” (Gtx, Inc., priority 2010, dated 2012).

Read-outs that look alike come from different tables or passages of the source.

One data set has as its system DU 145. As to the kind of experiment: cells. The following applies: Homo sapiens, DU-145, 96 h, read-out: IC50 ± SEM (nM), DU 145.
Data set [1] has as its system PC-3 prostate tumor xenograft. Kind of data set: In vivo antitumor efficacy, PC-3 xenograft. The following applies: control 680 mm^3. Also on record: species or system mouse. From the text: (§1) PC-3 and A375 tumor xenograft studies.
(§2) In vivo antitumor activity [tumor growth inhibition (% T/C), tumor growth delay (T-C value), and tumor cell kill (total log cell kill)].

A further data set has as its system WM-164. Kind of data set: SRB cell growth inhibition (cytotoxicity) assay. It counts as cell-based, human. The following applies: Homo sapiens.
For a further data set, the system named is PC-3 cells. Kind of data set: In vivo drug resistance study (cells dissociated from PC-3 xenografts). It counts as cell-based. The conditions noted are these: Homo sapiens.
The test system of a further data set is OVCAR-8. As to the kind of experiment: SRB growth inhibition, MDR model parent line. The conditions noted are these: Homo sapiens, OVCAR-8. It counts as cell-based, human.
A short description of data set [2]: Rotarod test (in vivo neurotoxicity). The following applies: mouse. Background: Falling from the rotarod earlier than controls is read as motor impairment.
In another data set the test system is A375. As to the kind of experiment: SRB cell growth inhibition (cytotoxicity) assay. It counts as cell-based, human. The following applies: Homo sapiens.
A further data set concerns PC-3. Kind of data set: cells. From the text:
(§3) The only compounds which belong to the invention are the ones falling under the scope of formula (XI).
Cells were stained with SRB solution.
Cells. […] Cells between the third and fifth passages were used for experiments.
Cell growth inhibition studies. […] Cells were stained with sulphorhodamine B (SRB) solution.

The subject of data set [3] is A375 human melanoma xenograft. Kind of data set: In vivo antitumor efficacy, A375 melanoma xenograft. Also on record: species or system mouse. The following applies: 2k 15 mg/kg i.p. The protocol:
DTIC at 60 mg/kg was used as a positive control again.
as §1, §2

Data set [4] deals with tubulin (colchicine, vinblastine and paclitaxel binding sites). Kind of data set: MS competitive binding assay. From the text:
MS competition binding assay. […] Each reaction was run in triplicate.

A further data set deals with LNCaP. As to the kind of experiment: cells. The following applies: Homo sapiens, 96 h, read-out: IC50 ± SEM (nM), LNCaP.
The next data set deals with Bovine brain tubulin. As to the kind of experiment: In vitro tubulin polymerization assay. The conditions noted are these: 10 µM. It counts as biochemical.
From the text: (§4) In Vitro Tubulin Polymerization Assay.
as §4
In vitro microtubule polymerization assay.

The test system of the next data set is B16-F1. Kind of data set: SRB cell growth inhibition (cytotoxicity) assay. It counts as cell-based, mouse. The conditions noted are these: Mus musculus, B16-F1, SRB assay; Tables 1, 2, 3, 5B, 5C; read-out: IC50 ± SEM (nM), B16-F1.
From the text: as §3
(Sulforhodamine B stains cellular protein and so reports cell mass.)

A further data set is described as follows: in vivo. The conditions noted are these: mouse, ip.
Another data set relates to PPC-1. As to the kind of experiment: cells. The following applies: Homo sapiens, PPC-1, 96 h, read-out: IC50 ± SEM (nM), PPC-1.
In another data set the test system is MDA-MB-435. Kind of data set: SRB growth inhibition, sensitive parent melanoma line. It counts as cell-based. The following applies: Homo sapiens, MDA-MB-435; parental cell line, n=3; read-out: IC50 ± SEM (nmol/L) MDA-MB-435.
The subject of a further data set is NCI/ADR-RES. Kind of data set: SRB growth inhibition, P-gp over-expressing MDR line. It counts as cell-based, human. The conditions noted are these: Homo sapiens, NCI/ADR-RES; MDR1 overexpressed, n=3; read-out: IC50 ± SEM (nmol/L) NCI/ADR-RES.
The test system of the next data set is MRP. As to the kind of experiment: Growth inhibition in MRP-mediated resistant cells (Table 14B). It counts as cell-based. The conditions noted are these: n=3.
A further data set has as its system WM-164 melanoma cells. Kind of data set: Microtubule imaging (immunofluorescence). It counts as cell-based, human. The following applies: 18 h treatment. From the text:
Primary antibody for tubulin and fluorescence-labeled secondary antibody were subsequently added to the cells. Cell nuclei were stained by DAPI. Whole Cell Stain Green was also applied to all cells. All images were acquired with an Olympus IX71 inverted fluorescence microscope (Olympus Corp., Tokyo, Japan) with overlays from separate images of tubulin (red), nuclei (blue), and whole cells (green).

The subject of data set [5] is cancer and MDR cell lines with different resistance mechanisms. Kind of data set: Growth inhibition in other cancer and MDR cell lines of Table 14B. It counts as cell-based. The conditions noted are these: n=3.
For another data set, the system named is MDA-MB-435/LCC6MDR1. As to the kind of experiment: SRB growth inhibition, multidrug-resistant melanoma line. The following applies: MDA-MB-435/LCC6 MDR1; MDR1 overexpressed, n=3; read-out: IC50 ± SEM (nmol/L) MDA-MB-435/LCC6MDR1. It counts as cell-based.
The subject of another data set is T47D. It counts as cell-based, human.
Another data set concerns HUVEC monolayers. Kind of data set: Endothelial monolayer permeability assay. It counts as cell-based, human. The conditions noted are these: leakage of dextran after 1, 2, 4 h.
In data set [6] the test system is HUVECs (Human Umbilical Vein Endothelial Cells). It counts as cell-based.
The test system of another data set is CaCO-2. The conditions noted are these: human.
Setting [7] is: rat, IV, […] (1h, 2r), 5 mg/kg (5Ha, 5Hc).

With `COc1cc(C(=O)c2csc(-c3ccccc3)n2)cc(OC)c1OC` [1h, (2-Phenyl-thiazol-4-yl)-(3,4,5-trimethoxy-phenyl)-methanone], the IC50 came out at 71 ± 4 nM in the data set on DU 145; 64 ± 4 nM in the data set with WM-164 (WM164, 96 h, SRB assay, 96 h, Table 2, read-out: IC50 ± SEM (nM), WM-164); 29.1 ± 1.1 nM in the data set with PC-3 cells (PC-3, PC-3 cells from ATCC); 30.4 ± 0.5 nM with PC-3 cells (PC-3, dissociated cells from 1h treated tumors (15 mg/kg, 21 days)); 29.1 ± 0.8 nM in the data set on PC-3 cells (PC-3, dissociated cells from vehicle treated tumors); 35 ± 2 nM in the data set on OVCAR-8 (Table 5A, read-out: IC50 (nM), OVCAR-8). For the same molecule, the IC50 came to 28 ± 5 nM in the data set with A375 (A-375, 96 h, SRB assay, 96 h, Tables 1, 2, 3, 5B, 5C, read-out: IC50 ± SEM (nM), A375); 21 ± 1 nM in the data set with PC-3 (Homo sapiens, PC-3, 96 h, read-out: IC50 ± SEM (nM), PC-3); 28 ± 4 nM in the data set with LNCaP; 55 ± 5 nM in the data set on B16-F1; 43 ± 5 nM in the data set on PPC-1. In addition, the “Tumor volume by day 21” value in [1] (PC-3, 5 mg/kg i.p.) came out at 370 mm^3; in [1] (PC-3, 15 mg/kg i.p.), 176 mm^3. In data set [2], the “time on the rotating rod versus vehicle group” value is reported as “no significant difference”. In addition, the “% T/C” value in data set [3] (A375, 1h 20 mg/kg) is 28%. For the same molecule, in [3] (A375, nude mice, 1h 20 mg/kg, 34 days, control 2183 mm^3), the tumor volume is given as 775 mm^3. In addition, the “competition for tubulin binding sites” value in data set [4] is given as “specifically competed with colchicine binding to tubulin”. Further, in the data set on Bovine brain tubulin (15 min, Figure 28B), the inhibited tubulin polymerization turned out to be 90%. The molecule also came in with a tubulin polymerization inhibited with Bovine brain tubulin (20 min incubation, compared to vehicle) of 47%. Also, under “rat, IV, 2.5mpk”, the RatPK_IV5mgk_Cl is 7.7 (2.5mpk) mL/min/kg. Besides, under setting [7], the “CL (mL/min/kg), systemic clearance” value turned out to be 7.7 ± 1.0 mL/min/kg. The “Vss (L/kg), volume of distribution” value under setting [7] is 4.9 ± 1.9 L/kg. In addition, the volume of distribution (rats, […] iv) is 7.6 L/kg. For the same molecule, the clearance (rats, […] iv, Table 22) was determined as 6 mL/min/kg. In the data set “in vivo”, this molecule yielded an MTD at 96 h not below 30 mg/kg.

As for `COc1ccc(S(=O)(=O)Nc2cccnc2Nc2ccc(O)cc2)cc1` [ABT-751], the IC50 came out at 661 ± 56 nM in the data set with WM-164 (WM164, read-out: IC50 ± SEM (nM) (n=3), WM-164, Table 14A); 661 ± 56 nM with WM-164 (WM164, Table 14B, n=3, read-out: IC50 ± SEM (nmol/L) WM-164); 785 ± 17 nM in the data set on OVCAR-8 (parental cell line, n=3, read-out: IC50 ± SEM (nmol/L) OVCAR-8); 685 ± 108 nM with A375 (A-375, Table 14B, n=3, read-out: IC50 ± SEM (nmol/L) A375); 417 ± 23 nmol/L in the data set on MDA-MB-435; 864 ± 42 nmol/L in the data set with NCI/ADR-RES. In addition, the IC50 is 717 ± 28 nmol/L with MRP (MRP1 overexpressed, read-out: IC50 ± SEM (nmol/L) HEK293-MRP1); 747 ± 7 nmol/L in the data set with MRP (MRP2 overexpressed, read-out: IC50 ± SEM (nmol/L) HEK293-MRP2); 265 ± 36 nmol/L in data set [5] (A375MA2 cells, read-out: IC50 ± SEM (nmol/L) A375MA2); 645 ± 153 nmol/L in data set [5] (Homo sapiens, HEK293-pcDNA3.1 parental cell line, read-out: IC50 ± SEM (nmol/L) HEK293 - pcDNA3.1); 577 ± 31 nmol/L with MDA-MB-435/LCC6MDR1. In addition, the “effect on microtubules” value in the data set with WM-164 melanoma cells is listed as “microtubule fragmentation”.

In the case of `COc1cccc2c1C(=O)c1c(O)c3c(c(O)c1C2=O)C[C@@](O)(C(=O)CO)C[C@@H]3O[C@H]1C[C@H](N)[C@H](O)[C@H](C)O1` [Doxorubicin], the IC50 is 397 nM in the data set with PC-3 (read-out: IC50 PC3), 353 nM in the data set with T47D and 274 nM in data set [6] (read-out: IC50 HUVEC). In addition, the “permeability of endothelial cell monolayer” value with HUVEC monolayers was “did not induce any change”. For the same molecule, the “times more active against endothelial cells than against cancer cells” value in data set [6] (Table 24) is given as “not specific to endothelial cells”. For the same molecule, the “Selectivity ratio*, cancer cells/ HUVEC” value in data set [6] (mean IC50 in PC3 and T47D cells over HUVEC) is listed as 1.4.

Consider `CC(C)NCC(O)COc1cccc2ccccc12` (centres unmarked) [Propranolol], for which the “Papp(A→B) in CaCO-2 assay” value with CaCO-2 is listed as “Propranolol (19) 10^-6 cm/s”.

A word on the clearance: it is a measure of how efficiently the substance is removed, as volume per time.
